# Measurements as given in US5519021A, “Benzoxazinones as inhibitors of HIV reverse transcriptase” (priority 1995, dated 1996).
# How the values were obtained:
# HIV-1 DM (double mutant) = test: Cell spread assay, double mutant (DM); type: cell-based; conditions: MT-4 cells
# Protocol: (§1) Inhibition of the spread of HIV in cell culture was measured according to Nunberg, J. H. et al., J. Virol. 65, 4887 (1991 ). In this assay, MT-4 T-lymphoid cells were infected with HIV-1 (wild-type, unless otherwise indicated) by using a predetermined inoculum, and cultures were incubated for 24 h. At this time, ≤1% of the cells were positive by indirect immunofluorescence. Cells were then extensively washed and distributed into 96-well culture dishes. Serial twofold dilutions of inhibitor were added to the wells, and cultures were continued for 3 additional days. At 4 days postinfection, 100% of the cells in control cultures were infected. HIV-1 p24 accumulation was directly correlated with virus spread. The cell culture inhibitory concentration was defined as the inhibitor concentration in nanomoles/liter which reduced the spread of infection by at least 95%, or CIC95.
# (§2) *Mutants K103N and Y181C are drugresistant HIV1 reverse transcriptases. D
# is the double mutant, as discussed in the reverse transcriptase assay. RT
# HIV-1 K103N = test: Cell spread assay, K103N mutant; type: cell-based; conditions: MT-4 cells
# Protocol: as §1, §2
# HIV-1 Y181C = test: Cell spread assay, Y181C mutant; type: cell-based; conditions: MT-4 cells
# Protocol: as §1, §2
# [1] = target: T1, reverse transcriptase of HIV2 (Human immunodeficiency virus type 2 subtype A, UniProt P04584); test: Reverse transcriptase assay, RT-2; type: biochemical
# T1 construct: is the reverse transcriptase of HIV2
# T1 sequence (P04584 613-1171): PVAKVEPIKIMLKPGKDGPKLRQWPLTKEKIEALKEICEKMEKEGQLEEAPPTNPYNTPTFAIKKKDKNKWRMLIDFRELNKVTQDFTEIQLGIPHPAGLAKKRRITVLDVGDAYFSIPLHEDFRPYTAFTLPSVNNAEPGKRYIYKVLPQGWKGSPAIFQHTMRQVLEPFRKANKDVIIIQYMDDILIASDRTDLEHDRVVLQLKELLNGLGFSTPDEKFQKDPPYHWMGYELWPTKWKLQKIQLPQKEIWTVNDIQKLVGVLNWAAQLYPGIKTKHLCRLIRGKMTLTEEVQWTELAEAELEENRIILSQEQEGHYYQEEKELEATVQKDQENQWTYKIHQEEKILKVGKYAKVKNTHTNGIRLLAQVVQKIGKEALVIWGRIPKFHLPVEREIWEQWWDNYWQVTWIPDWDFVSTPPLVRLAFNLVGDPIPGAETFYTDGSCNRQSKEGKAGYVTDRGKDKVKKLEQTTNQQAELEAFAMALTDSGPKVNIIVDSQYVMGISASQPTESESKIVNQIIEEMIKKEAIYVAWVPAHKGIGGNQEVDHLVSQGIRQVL
# T1 sequence (P04584 613-1051): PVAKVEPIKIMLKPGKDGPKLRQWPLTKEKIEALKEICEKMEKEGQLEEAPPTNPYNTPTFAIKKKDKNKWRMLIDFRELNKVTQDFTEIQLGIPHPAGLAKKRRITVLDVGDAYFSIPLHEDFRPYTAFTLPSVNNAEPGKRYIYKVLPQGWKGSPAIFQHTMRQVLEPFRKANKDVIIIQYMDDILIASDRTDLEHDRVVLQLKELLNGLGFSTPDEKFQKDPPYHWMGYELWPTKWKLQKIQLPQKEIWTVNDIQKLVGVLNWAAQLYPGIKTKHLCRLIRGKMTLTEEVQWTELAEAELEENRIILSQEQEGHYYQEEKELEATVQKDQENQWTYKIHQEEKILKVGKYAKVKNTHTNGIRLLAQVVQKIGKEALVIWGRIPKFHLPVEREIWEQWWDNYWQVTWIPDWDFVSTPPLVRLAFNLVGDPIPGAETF
# Protocol: The assay measures the incorporation of tritiated deoxyguanosine monophosphate by recombinant HIV reverse transcriptase (HIV RTR) (or other RT) into acid-precipitable cDNA at the Km values of dGTP and poly r(C).cndot.oligo d(G)12-18.
# The assays were carried out in 55 mM Tris (pH 8.2)-30 mM KCl-30 mM MgCl2 -1 mM dithiothreitol-20 μg of rC:dG 12-18 (Pharmacia) per ml-8 mM [^3 H]dGTP (New England Nuclear)-0.01% Triton X-100-50 mM ethylene glycol-bis(β-amino-ethyl ether)-N,N,N',N'-tetraacetic acid (EGTA)-1 mg of bovine serum albumin per ml. After 60 min of incubation at 37° C., acid-precipitable material was collected onto glass fiber filters by using a semiautomatic cell harvester. Bacterial cell extracts containing RT were diluted to within the linear range of the assay, and activity was determined in the presence and absence of inhibitor. Purified HIV-1 RT heterodimer produced in E. coli also served as a control. Results are determined as inhibitor concentration to give 50% inhibition (IC50 wt), in nanomoles/liter.
# is the reverse transcriptase of HIV2.
# HIV-1 (wild-type) = test: Cell spread assay (MT-4 T-lymphoid cells); type: cell-based; conditions: Human immunodeficiency virus 1, MT4, 72 h; WT virus, MT-4 cells, N = 2; read-out: CIC95 (μM) WT
# Protocol: as §1
# [2] = Protein binding (HPLC method); type: in vitro ADME; conditions: Normal Human Plasma (HPLC Method)
# Excerpt: Protein Binding: 98.0% Normal Human Plasma (HPLC Method)
compound,measurement,setting,value
"O=C1Nc2ccc(Cl)cc2[C@@](C#CC2CC2)(C(F)(F)F)O1 [37.2(-), (-) 6-Chloro-4-cyclopropylethynyl-4-trifluoromethyl-1,4-dihydro-2H-3,1-benzoxazin-2-one]",CIC95 (μM) DM,HIV-1 DM (double mutant),0.400 µM
same,CIC95 (μM) K103N,HIV-1 K103N,0.100 µM
same,CIC95 (μM) Y181C,HIV-1 Y181C,< 0.025 µM
same,IC50,[1],80.8 µM
same,IC95,HIV-1 (wild-type),< 0.006 µM
same,fraction unbound,[2],0.02
